According to patent publication US12012409B2, “Bicyclic heterocycles as FGFR inhibitors” (Incyte Corporation, priority 2020, dated 2024):
pIC50: −log10 of the molar value.

What was measured:
Format in all cases: biochemical
Settings in all cases: wild-type un-phosphorylated protein; pre-incubated for 4 hours; ATP near or below Km
[1] = target: wild-type un-phosphorylated FGFR4 (Homo sapiens, UniProt P22455); test: FGFR Enzymatic Assay (FRET peptide phosphorylation), FGFR4
Procedure: (§1) The inhibitor potency of the exemplified compounds was determined in an enzyme discontinuous assay that measures peptide phosphorylation using FRET measurements to detect product formation. Inhibitors were serially diluted in DMSO and a volume of 0.2 μL was transferred to the wells of a 384-well plate. […] Appropriate controls (enzyme blank and enzyme with no inhibitor) were included on the plate. […] The ATP Km values were pre-determined in a separate series of experiments. […] The plate was allowed to equilibrate for ˜10 minutes at ambient temperature before scanning on a PheraStar plate reader (BMG Labtech) instrument.
(§2) Either GraphPad prism or XLfit was used to analyze the data. The IC50 values were derived by fitting the data to a four parameter logistic equation producing a sigmoidal dose-response curve with a variable Hill coefficient. Prism equation: Y=Bottom+(Top−Bottom)/(1+10^((LogIC50−X)*Hill slope)); XLfit equation: Y=(A+((B−A)/(1+((X/C)^D)))) where X is the logarithm of inhibitor concentration and Y is the response.
(§3) The data in Table 1 was measured in wild-type un-phosphorylated FGFR1, FGFR2, FGFR3 and FGFR4 protein.

[2] = target: wild-type un-phosphorylated FGFR2 (Homo sapiens, UniProt P21802); test: FGFR Enzymatic Assay (FRET peptide phosphorylation), FGFR2
Procedure: as §1, §2, §3

[3] = target: wild-type un-phosphorylated FGFR1 (Homo sapiens, UniProt P11362); test: FGFR Enzymatic Assay (FRET peptide phosphorylation), FGFR1
Procedure: as §1, §2

[4] = target: wild-type un-phosphorylated FGFR3 (Homo sapiens, UniProt P22607); test: FGFR Enzymatic Assay (FRET peptide phosphorylation), FGFR3
Procedure: as §1, §2

wild-type un-phosphorylated FGFR2, sequence (P21802 22-821): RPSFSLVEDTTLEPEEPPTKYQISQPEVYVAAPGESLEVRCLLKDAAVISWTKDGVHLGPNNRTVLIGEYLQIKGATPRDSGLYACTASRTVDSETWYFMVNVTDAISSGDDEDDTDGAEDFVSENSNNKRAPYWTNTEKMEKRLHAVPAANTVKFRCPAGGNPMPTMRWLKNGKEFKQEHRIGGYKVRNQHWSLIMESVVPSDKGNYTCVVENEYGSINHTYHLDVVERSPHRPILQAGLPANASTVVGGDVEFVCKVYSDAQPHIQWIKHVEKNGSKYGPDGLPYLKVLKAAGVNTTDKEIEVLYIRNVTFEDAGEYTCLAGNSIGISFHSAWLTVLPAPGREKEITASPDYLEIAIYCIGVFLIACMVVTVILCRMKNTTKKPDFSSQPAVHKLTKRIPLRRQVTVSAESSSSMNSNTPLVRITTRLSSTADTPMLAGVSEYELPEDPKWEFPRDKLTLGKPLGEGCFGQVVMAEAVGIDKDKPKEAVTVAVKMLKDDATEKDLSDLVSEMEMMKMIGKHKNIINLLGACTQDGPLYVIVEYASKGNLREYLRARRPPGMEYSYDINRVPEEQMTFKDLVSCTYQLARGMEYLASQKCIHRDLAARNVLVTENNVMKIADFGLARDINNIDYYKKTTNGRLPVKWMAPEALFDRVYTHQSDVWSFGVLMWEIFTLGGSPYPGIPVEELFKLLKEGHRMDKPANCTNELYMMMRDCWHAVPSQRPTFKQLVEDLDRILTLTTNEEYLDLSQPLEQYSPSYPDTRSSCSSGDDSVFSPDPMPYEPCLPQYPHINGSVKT
wild-type un-phosphorylated FGFR1, sequence (P11362 22-822): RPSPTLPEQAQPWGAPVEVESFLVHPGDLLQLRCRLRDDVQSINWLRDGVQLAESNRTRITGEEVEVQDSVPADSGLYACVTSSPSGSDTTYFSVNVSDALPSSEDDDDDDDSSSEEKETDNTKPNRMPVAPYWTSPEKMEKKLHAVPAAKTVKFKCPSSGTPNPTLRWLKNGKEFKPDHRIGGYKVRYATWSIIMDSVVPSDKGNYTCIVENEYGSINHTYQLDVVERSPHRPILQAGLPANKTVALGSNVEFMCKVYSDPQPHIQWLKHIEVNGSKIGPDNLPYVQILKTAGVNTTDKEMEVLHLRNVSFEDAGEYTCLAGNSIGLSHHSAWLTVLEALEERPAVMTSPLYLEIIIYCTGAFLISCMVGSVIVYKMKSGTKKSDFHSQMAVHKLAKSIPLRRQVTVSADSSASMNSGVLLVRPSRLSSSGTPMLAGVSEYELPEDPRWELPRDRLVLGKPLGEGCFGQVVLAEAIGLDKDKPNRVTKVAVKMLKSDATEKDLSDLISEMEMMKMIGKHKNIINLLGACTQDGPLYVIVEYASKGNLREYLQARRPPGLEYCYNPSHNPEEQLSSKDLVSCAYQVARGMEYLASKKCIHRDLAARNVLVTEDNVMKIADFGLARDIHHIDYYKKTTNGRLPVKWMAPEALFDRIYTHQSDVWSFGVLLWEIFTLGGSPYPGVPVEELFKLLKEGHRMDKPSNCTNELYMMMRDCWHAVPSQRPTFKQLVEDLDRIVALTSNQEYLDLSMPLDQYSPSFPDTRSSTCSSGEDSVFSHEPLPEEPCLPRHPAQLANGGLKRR
wild-type un-phosphorylated FGFR4, sequence (P22455 22-802): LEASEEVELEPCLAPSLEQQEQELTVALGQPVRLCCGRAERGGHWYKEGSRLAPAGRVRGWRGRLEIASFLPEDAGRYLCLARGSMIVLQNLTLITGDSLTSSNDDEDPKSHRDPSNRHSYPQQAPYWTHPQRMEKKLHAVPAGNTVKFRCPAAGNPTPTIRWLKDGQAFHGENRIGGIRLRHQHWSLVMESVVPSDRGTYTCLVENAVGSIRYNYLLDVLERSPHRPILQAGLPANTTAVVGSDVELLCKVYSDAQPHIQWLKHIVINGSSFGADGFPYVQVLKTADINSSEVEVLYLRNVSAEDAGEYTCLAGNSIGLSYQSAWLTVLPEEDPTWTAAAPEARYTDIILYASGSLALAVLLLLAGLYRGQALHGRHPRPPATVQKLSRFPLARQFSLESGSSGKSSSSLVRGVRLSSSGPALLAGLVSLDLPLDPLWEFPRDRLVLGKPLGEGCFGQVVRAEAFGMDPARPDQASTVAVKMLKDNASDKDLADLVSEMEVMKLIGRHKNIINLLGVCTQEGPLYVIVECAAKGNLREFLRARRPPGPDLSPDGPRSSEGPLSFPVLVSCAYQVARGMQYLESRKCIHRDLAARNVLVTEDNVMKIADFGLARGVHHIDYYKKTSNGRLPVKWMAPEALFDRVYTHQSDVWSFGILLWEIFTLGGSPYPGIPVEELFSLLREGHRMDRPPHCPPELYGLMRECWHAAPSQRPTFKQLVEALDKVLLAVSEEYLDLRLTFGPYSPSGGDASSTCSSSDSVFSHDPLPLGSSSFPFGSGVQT
wild-type un-phosphorylated FGFR3, sequence (P22607 23-806): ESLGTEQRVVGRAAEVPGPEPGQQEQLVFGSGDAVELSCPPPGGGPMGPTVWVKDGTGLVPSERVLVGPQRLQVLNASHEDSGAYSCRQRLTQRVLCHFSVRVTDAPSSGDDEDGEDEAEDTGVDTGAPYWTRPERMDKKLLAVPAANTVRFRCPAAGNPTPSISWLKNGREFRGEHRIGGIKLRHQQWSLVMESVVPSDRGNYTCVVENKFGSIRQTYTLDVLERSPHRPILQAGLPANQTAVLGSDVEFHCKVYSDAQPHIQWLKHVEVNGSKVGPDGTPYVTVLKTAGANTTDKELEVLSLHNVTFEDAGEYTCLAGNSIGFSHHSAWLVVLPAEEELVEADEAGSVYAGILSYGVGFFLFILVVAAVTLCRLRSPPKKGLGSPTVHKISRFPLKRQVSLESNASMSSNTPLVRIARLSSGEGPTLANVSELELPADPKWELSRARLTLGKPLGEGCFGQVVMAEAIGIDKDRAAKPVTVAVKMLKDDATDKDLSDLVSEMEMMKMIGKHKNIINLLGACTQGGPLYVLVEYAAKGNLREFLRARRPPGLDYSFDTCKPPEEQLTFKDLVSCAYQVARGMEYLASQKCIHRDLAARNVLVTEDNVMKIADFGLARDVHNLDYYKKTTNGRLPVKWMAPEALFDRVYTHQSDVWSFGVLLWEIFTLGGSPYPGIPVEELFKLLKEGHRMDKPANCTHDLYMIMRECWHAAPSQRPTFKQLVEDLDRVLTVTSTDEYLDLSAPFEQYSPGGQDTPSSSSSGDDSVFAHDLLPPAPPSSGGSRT

`CNC(=O)c1cccc(-c2cnc3cc(-c4cnn(C)c4)c(OC)nn23)c1` [Example 2, 3-(6-Methoxy-7-(1-methyl-1H-pyrazol-4-yl)imidazo[1,2-b]pyridazin-3-yl)-N-methylbenzamide] gave a pIC50 [1] of at most 6.40.
Work on `CNC(=O)c1cccc(-c2cnc3cc(-c4cnn(C)c4)c(OC4COC4)nn23)c1` [Example 58, N-Methyl-3-(7-(1-methyl-1H-pyrazol-4-yl)-6-(oxetan-3-yloxy)imidazo[1,2-b]pyridazin-3-yl)benzamide] yielded a pIC50 [2] of over 8.00 and a pIC50 [1] of 6.40 to 7.00.
Work on `CNC(=O)c1cc(-c2cnc3cc(-c4cnn(CCN5CCOCC5)c4)c(O[C@H]4CCOC4)nn23)c(F)c(C(F)F)c1` [Example 30, (S)-3-(Difluoromethyl)-4-fluoro-N-methyl-5-(7-(1-(2-morpholinoethyl)-1H-pyrazol-4-yl)-6-((tetrahydrofuran-3-yl)oxy)imidazo[1,2-b]pyridazin-3-yl)benzamide] yielded a pIC50 [3] of 7.00 to 8.00, a pIC50 [2] of over 8.00 and a pIC50 [1] of 7.00 to 8.00. For the same molecule, the pIC50 [4] was over 8.00.
For `CNC(=O)c1cc(F)c(F)c(-c2cnc3cc(-c4cnn5c4CCC5)c(O[C@H]4CCOC4)nn23)c1` [Example 22, (S)-3-(7-(5,6-Dihydro-4H-pyrrolo[1,2-b]pyrazol-3-yl)-6-((tetrahydrofuran-3-yl)oxy)imidazo[1,2-b]pyridazin-3-yl)-4,5-difluoro-N-methylbenzamide], the pIC50 [3] was 7.00 to 8.00, the pIC50 [2] was over 8.00 and the pIC50 [1] was 6.40 to 7.00. It also gave a pIC50 [4] of over 8.00.
`CNC(=O)c1cc(F)c(F)c(-c2cnc3cc(-c4cnn(C5CCN(S(=O)(=O)N(C)C)CC5)c4)c(O[C@H]4CCOC4)nn23)c1` [Example 76, (S)-3-(7-(1-(1-(N,N-Dimethylsulfamoyl)piperidin-4-yl)-1H-pyrazol-4-yl)-6-((tetrahydrofuran-3-yl)oxy)imidazo[1,2-b]pyridazin-3-yl)-4,5-difluoro-N-methylbenzamide] gave a pIC50 [3] of over 8.00, a pIC50 [2] of over 8.00 and a pIC50 [4] of over 8.00.
In the case of `CNC(=O)c1cc(F)c(F)c(-c2cnc3cc(-c4ccncc4)c(O[C@H]4CCOC4)nn23)c1` [Example 72, (S)-3,4-Difluoro-N-methyl-5-(7-(pyridin-4-yl)-6-((tetrahydrofuran-3-yl)oxy)imidazo[1,2-b]pyridazin-3-yl)benzamide], the pIC50 [3] was 6.40 to 7.00, the pIC50 [2] was 7.00 to 8.00 and the pIC50 [4] was over 8.00.
`CNC(=O)c1cc(-c2cnc3cc(-c4ccc(N5CCCC5)nc4)c(O[C@H]4CCOC4)nn23)c(F)c(C(F)F)c1` [Example 32, (S)-3-(Difluoromethyl)-4-fluoro-N-methyl-5-(7-(6-(pyrrolidin-1-yl)pyridin-3-yl)-6-((tetrahydrofuran-3-yl)oxy)imidazo[1,2-b]pyridazin-3-yl)benzamide] was tested, and the pIC50 [3] was 6.40 to 7.00, the pIC50 [2] was over 8.00 and the pIC50 [4] was over 8.00.
Work on `CNC(=O)c1cc(F)c(F)c(-c2cnc3cc(-c4cnn(-c5ccccn5)c4)c(O[C@H]4CCOC4)nn23)c1` [Example 70, (S)-3,4-Difluoro-N-methyl-5-(7-(1-(pyridin-2-yl)-1H-pyrazol-4-yl)-6-((tetrahydrofuran-3-yl)oxy)imidazo[1,2-b]pyridazin-3-yl)benzamide] yielded a pIC50 [3] of 6.40 to 7.00, a pIC50 [2] of over 8.00 and a pIC50 [4] of over 8.00.
With `CC(C)(O)Cn1cc(-c2cc3ncc(-c4cccc(-c5ccc(F)cc5F)c4)n3nc2O[C@H]2CCOC2)cn1` [Example 48, (S)-1-(4-(3-(2′,4′-Difluoro-[1,1′-biphenyl]-3-yl)-6-((tetrahydrofuran-3-yl)oxy)imidazo[1,2-b]pyridazin-7-yl)-1H-pyrazol-1-yl)-2-methylpropan-2-ol] the pIC50 [3] was 7.00 to 8.00, the pIC50 [2] was 7.00 to 8.00 and the pIC50 [4] was 7.00 to 8.00.
Molecule `CNC(=O)c1cncc(-c2cnc3cc(-c4ccc(NC(=O)OC)cc4)c(O[C@H]4CCOC4)nn23)c1` [Example 67, Methyl (S)-(4-(3-(5-(Methylcarbamoyl)pyridin-3-yl)-6-((tetrahydrofuran-3-yl)oxy)imidazo[1,2-b]pyridazin-7-yl)phenyl)carbamate] has a pIC50 [3] of 6.40 to 7.00, a pIC50 [2] of 7.00 to 8.00 and a pIC50 [4] of 7.00 to 8.00.
With `CNC(=O)c1cc(-c2cnc3cc(-c4ccc(C)c(C#N)c4)c(O[C@H]4CCOC4)nn23)c(F)c(C(F)F)c1` [Example 31, (S)-3-(7-(3-Cyano-4-methylphenyl)-6-((tetrahydrofuran-3-yl)oxy)imidazo[1,2-b]pyridazin-3-yl)-5-(difluoromethyl)-4-fluoro-N-methylbenzamide] the pIC50 [3] was at most 6.40, the pIC50 [2] was 7.00 to 8.00 and the pIC50 [4] was 7.00 to 8.00.
Work on `CNC(=O)c1cc(F)c(F)c(-c2cnc3cc(-c4cnn(C)c4)c(N[C@H]4CCOC4)nn23)c1` [Example 19, (S)-3,4-Difluoro-N-methyl-5-(7-(1-methyl-1H-pyrazol-4-yl)-6-((tetrahydrofuran-3-yl)amino)imidazo[1,2-b]pyridazin-3-yl)benzamide] yielded a pIC50 [3] of 7.00 to 8.00, a pIC50 [2] of over 8.00 and a pIC50 [4] of over 8.00.
In the case of `CNC(=O)c1cccc(-c2cnc3cc(-c4cnn(C)c4)c(OC)cn23)c1` [Example 1, 3-(6-Methoxy-7-(1-methyl-1H-pyrazol-4-yl)imidazo[1,2-a]pyridine-3-yl)-N-methylbenzamide], the pIC50 [3] was at most 6.40, the pIC50 [1] was at most 6.40 and the pIC50 [4] was 7.00 to 8.00.
Molecule `CNC(=O)c1cc(F)c(F)c(-c2cnc3cc(-c4cnn(C5CCC5)c4)c(O[C@H]4CCOC4)nn23)c1` [Example 25, (S)-3-(7-(1-Cyclobutyl-1H-pyrazol-4-yl)-6-((tetrahydrofuran-3-yl)oxy)imidazo[1,2-b]pyridazin-3-yl)-4,5-difluoro-N-methylbenzamide] has a pIC50 [3] of over 8.00, a pIC50 [2] of over 8.00 and a pIC50 [4] of over 8.00.
Molecule `CNC(=O)c1cncc(-c2cnc3cc(-c4ccc(N5CCN(C)CC5)cc4)c(O[C@H]4CCOC4)nn23)c1` [Example 68, (S)—N-Methyl-5-(7-(4-(4-methylpiperazin-1-yl)phenyl)-6-((tetrahydrofuran-3-yl)oxy)imidazo[1,2-b]pyridazin-3-yl)nicotinamide] has a pIC50 [3] of 7.00 to 8.00, a pIC50 [2] of 7.00 to 8.00 and a pIC50 [4] of over 8.00.
